Data from patent publication US20240158393A1, “PYRIDONE COMPOUNDS AND METHODS OF USE” (Exelixis, Inc., priority 2021, published 2024).
Structures can show the parent of a compound that is named as a salt.

How the values were obtained:
Human KDR = molecular target: T1, Human KDR (Homo sapiens, UniProt P35968); assay: Human KDR kinase assay (33P radiometric / HTRF KinEase); type: biochemical; conditions: protocols of Examples B-1 and/or B-2
T1 construct: Human KDR (residues K790-V1356, 55 nM); purchased Eurofins Pharma Discovery Services UK Limited (KinaseProfiler, B-1) and/or CarnaBio (B-2)
T1 sequence (P35968 790-1356): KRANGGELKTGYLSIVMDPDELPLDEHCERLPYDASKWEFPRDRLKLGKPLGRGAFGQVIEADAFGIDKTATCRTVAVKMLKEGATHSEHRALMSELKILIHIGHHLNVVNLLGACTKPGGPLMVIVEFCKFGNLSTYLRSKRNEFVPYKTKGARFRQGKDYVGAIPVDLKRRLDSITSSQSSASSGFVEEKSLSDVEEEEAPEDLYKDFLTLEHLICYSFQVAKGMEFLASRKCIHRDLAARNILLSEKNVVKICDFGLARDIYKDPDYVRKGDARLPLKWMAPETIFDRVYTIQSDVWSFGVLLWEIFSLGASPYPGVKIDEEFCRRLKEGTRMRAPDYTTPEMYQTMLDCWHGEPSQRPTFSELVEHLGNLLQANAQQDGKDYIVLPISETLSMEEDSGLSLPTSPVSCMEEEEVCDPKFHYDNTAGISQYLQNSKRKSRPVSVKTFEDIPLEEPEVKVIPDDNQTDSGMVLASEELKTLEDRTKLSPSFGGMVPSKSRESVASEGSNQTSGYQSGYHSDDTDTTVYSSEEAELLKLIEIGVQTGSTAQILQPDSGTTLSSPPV
Description: (§1) Kinase activity and compound inhibition were investigated using the ^33P-Phosphoryl transfer radiometric kinase assay, performed using the KinaseProfiler™ service of Eurofins Pharma Discovery Services UK Limited. Dose-response experiments were performed using nine compound concentrations in a 96-well microtiter plate. For each assay, all compounds were prepared to a 50× final assay concentration (50 μM) in 100% DMSO, then diluted in a half-log series, with the final top concentration at 1 μM. This working stock of the compound was added to the assay well as the first component in the reaction, followed by the remaining components as detailed in the following assay protocols below. The positive control wells (100% kinase activity) contain all components of the reaction including 2% DMSO (control for solvent effects), except the compound of interest. Blank wells contain all components of the reaction, with the reference inhibitor, staurosporine. This reference compound was used to abolish kinase activity and generated the 0% kinase activity base-line. IC50 values were calculated by nonlinear regression analysis using the sigmoidal dose-response (variable slope) curve fit on XLFit version 5.3 (ID Business Solutions).
(§2) Kinase activity and compound inhibition were also investigated using the HTRF® KinEase assay (Cisbio Cat #62TKOPEB) per manufacturer's instructions. In short, compounds were delivered in 300 nL volumes at 10 different concentrations in DMSO (3% final) to empty 384-well assay plates (Corning cat #3824). A mixture of enzyme, 1 μM biotinylated peptide substrate, and buffer in 10 μL volume was added. The assay was started upon the addition of ATP (at Km). The 10 μL reaction was incubated at room temperature. The reaction was stopped upon the addition of detection buffer containing streptavidin-XL665 (5 μL) and TK antibody-Eu3+(5 μL). After a 60 min incubation at room temperature, the fluorescence at 665 nm and 620 nm was read on an Envision microplate reader (Perkin Elmer).
(§3) Kinase activity normalized to DMSO (100% activity) and reference compound at 1 μM and (0% activity) was calculated using the fluorescence ratio […]. IC50 values were calculated by nonlinear regression analysis using a 4-parameter logistic curve fit in ActivityBase XE (IDBS).
(§4) Example B-1: Human KDR (residues K790-V1356, 55 nM) was incubated with 8 mM MOPS pH 7.0, 0.2 mM EDTA, 0.33 mg/mL myelin basic protein, 10 mM magnesium acetate, and 10 μM [γ-^33P-ATP]. The reaction was initiated by the addition of the Mg/ATP mix. After incubation for 40 minutes at room temperature, the reaction was stopped by the addition of phosphoric acid to a concentration of 0.5%. A reaction aliquot of 10 μL was then spotted onto a P30 filtermat and washed four times for 4 minutes in 0.425% phosphoric acid and once in methanol prior to drying and scintillation counting. Incorporated ^33P was measured using the Wallac Microbeta scintillation counter (Perkin Elmer).
Example B-2: Human KDR (residues 790-1356; CarnaBio, 0.1 ng/well) was also incubated with enzymatic buffer (Cisbio) supplemented with 5 mM MgCl2, 1 mM MnCl2, and 1 mM DTT. The mixture was added to the pre-plated compounds. The reaction was initiated upon addition of ATP at Km (4.0 μM). The reaction was incubated at room temperature for 40 min and stopped upon the addition of SA-XL665 and TK-antibody both diluted in EDTA-containing kinase detection buffer (Cisbio). The kinase activity was calculated as stated above and the IC50 values were reported.

Human Axl = molecular target: T2, Human Axl (Homo sapiens, UniProt P30530); assay: Human AXL kinase assay (33P radiometric / HTRF KinEase); type: biochemical; conditions: protocols of Examples A-1 and/or A-2
T2 construct: Human AXL (residues 464-885)
T2 sequence (P30530 1-894 Q764R): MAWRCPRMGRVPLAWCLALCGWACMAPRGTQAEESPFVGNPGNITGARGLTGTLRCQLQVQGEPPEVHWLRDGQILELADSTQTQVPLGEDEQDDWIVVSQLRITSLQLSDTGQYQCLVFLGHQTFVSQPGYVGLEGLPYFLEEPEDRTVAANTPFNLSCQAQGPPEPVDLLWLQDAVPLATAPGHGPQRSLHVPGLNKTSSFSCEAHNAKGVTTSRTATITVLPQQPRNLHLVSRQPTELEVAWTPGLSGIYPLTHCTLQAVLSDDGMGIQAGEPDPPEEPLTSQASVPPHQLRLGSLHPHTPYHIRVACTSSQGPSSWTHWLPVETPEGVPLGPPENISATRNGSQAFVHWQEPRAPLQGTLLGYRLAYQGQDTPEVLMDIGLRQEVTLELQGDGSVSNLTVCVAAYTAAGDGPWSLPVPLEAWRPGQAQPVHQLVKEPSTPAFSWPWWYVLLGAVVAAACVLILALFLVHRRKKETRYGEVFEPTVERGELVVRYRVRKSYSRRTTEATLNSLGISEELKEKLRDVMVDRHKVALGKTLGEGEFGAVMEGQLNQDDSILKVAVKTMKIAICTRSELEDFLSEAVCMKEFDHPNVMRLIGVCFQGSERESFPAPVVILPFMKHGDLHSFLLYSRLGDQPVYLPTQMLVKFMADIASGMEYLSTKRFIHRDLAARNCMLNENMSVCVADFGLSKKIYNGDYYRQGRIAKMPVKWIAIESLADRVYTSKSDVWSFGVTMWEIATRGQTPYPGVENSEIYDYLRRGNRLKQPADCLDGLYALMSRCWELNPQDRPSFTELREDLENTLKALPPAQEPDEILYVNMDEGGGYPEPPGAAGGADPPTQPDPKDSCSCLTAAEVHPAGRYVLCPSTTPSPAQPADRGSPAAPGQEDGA
Description: as §1, §2, §3
as §4, with “A-1:” for “B-1:”, “Axl” for “KDR”, “H473-A894 with Q764R, 161” for “K790-V1356, 55”, “250 μM KKSRGDYMTMQIG (SEQ ID NO:1),” for “0.33 mg/mL myelin basic protein,”, “acetate” for “acetate,”
Example A-2: Human AXL (residues 464-885; CarnaBio, 1 ng/well) was also incubated with enzymatic buffer (Cisbio) supplemented with 5 mM MgCl2, 1 mM DTT, and Supplemental Enzymatic Buffer (SEB; Cisbio). The mixture was added to the pre-plated compounds. The reaction was initiated upon addition of ATP at Km (1.0 μM). The reaction was incubated at room temperature for 50 min and stopped upon the addition of SA-XL665 and TK-antibody both diluted in EDTA-containing kinase detection buffer (Cisbio). The kinase activity was calculated as stated above and the IC50 values were reported.

SMILES	IC50 (Human KDR)	IC50 (Human Axl)
COc1cc2nccc(Oc3ccc(NC(=O)c4cn(C)c(C)c(C5=CCCC5)c4=O)cc3F)c2nc1OC [Compound 1, 5-(Cyclopenten-1-yl)-N-[4-[(6,7-dimethoxy-1,5-naphthyridin-4-yl)oxy]-3-fluorophenyl]-1,6-dimethyl-4-oxopyridine-3-carboxamide]	≤ 100 nM	≤ 100 nM
COc1cc2nccc(Oc3ccc(NC(=O)c4c(C)nc(C)c(C5=CCCC5)c4O)cc3F)c2nc1OC [Compound 1-2, 5-(Cyclopenten-1-yl)-N-[4-[(6,7-dimethoxy-1,5-naphthyridin-4-yl)oxy]-3-fluorophenyl]-4-hydroxy-2,6-dimethylpyridine-3-carboxamide hydrochloride]	≤ 100 nM	≤ 100 nM
COc1cc2nccc(Oc3ccc(NC(=O)c4cnc(C)c(C5=CCOCC5)c4O)cc3F)c2nc1OC [Compound 1-3, 5-(3,6-Dihydro-2H-pyran-4-yl)-N-[4-[(6,7-dimethoxy-1,5-naphthyridin-4-yl)oxy]-3-fluorophenyl]-4-hydroxy-6-methylpyridine-3-carboxamide]	≤ 100 nM	≤ 100 nM
COc1cnc2c(Oc3ccc(NC(=O)c4cnc(C)c(C5=CCOCC5)c4O)cc3F)ccnc2c1 [Compound 1-4, 5-(3,6-Dihydro-2H-pyran-4-yl)-N-[3-fluoro-4-[(7-methoxy-1,5-naphthyridin-4-yl)oxy]phenyl]-4-hydroxy-6-methylpyridine-3-carboxamide]	≤ 100 nM	≤ 100 nM
COc1ccc2nccc(Oc3ccc(NC(=O)c4cnc(C)c(C5=CCOCC5)c4O)cc3F)c2n1 [Compound 1-5, 5-(3,6-Dihydro-2H-pyran-4-yl)-N-[3-fluoro-4-[(6-methoxy-1,5-naphthyridin-4-yl)oxy]phenyl]-4-hydroxy-6-methylpyridine-3-carboxamide]	≤ 100 nM	≤ 100 nM
COc1ccc2nccc(Oc3ccc(NC(=O)c4cnc(C)c(C5=CCCCC5)c4O)cc3F)c2n1 [Compound 1-6, 5-(Cyclohexen-1-yl)-N-[3-fluoro-4-[(6-methoxy-1,5-naphthyridin-4-yl)oxy]phenyl]-4-hydroxy-6-methylpyridine-3-carboxamide]	100 to 300 nM	≤ 100 nM
COc1ccc2nccc(Oc3ccc(NC(=O)c4cnc(C)c(C5=CCCC5)c4O)cc3F)c2n1 [Compound 1-7, 5-(Cyclopenten-1-yl)-N-[3-fluoro-4-[(6-methoxy-1,5-naphthyridin-4-yl)oxy]phenyl]-4-hydroxy-6-methylpyridine-3-carboxamide]	≤ 100 nM	≤ 100 nM
COc1cnc2c(Oc3ccc(NC(=O)c4cnc(C)c(C5=CCCC5)c4O)cc3F)ccnc2c1 [Compound 1-9, 5-(Cyclopenten-1-yl)-N-[3-fluoro-4-[(7-methoxy-1,5-naphthyridin-4-yl)oxy]phenyl]-4-hydroxy-6-methylpyridine-3-carboxamide]	≤ 100 nM	≤ 100 nM
COc1cc2nccc(Oc3ccc(NC(=O)c4cn(C)c(C)c(C5CCCC5)c4=O)cc3F)c2nc1OC [Compound 2, 5-Cyclopentyl-N-[4-[(6,7-dimethoxy-1,5-naphthyridin-4-yl)oxy]-3-fluorophenyl]-1,6-dimethyl-4-oxopyridine-3-carboxamide]	≤ 100 nM	≤ 100 nM
COc1cc2nccc(Oc3ccc(NC(=O)c4c(C)nc(C)c(C5=CCCCC5)c4O)cc3F)c2nc1OC [Compound 2-3, 5-(Cyclohexen-1-yl)-N-[4-[(6,7-dimethoxy-1,5-naphthyridin-4-yl)oxy]-3-fluorophenyl]-4-hydroxy-2,6-dimethylpyridine-3-carboxamide]	≤ 100 nM	≤ 100 nM
C=C(C)c1c(C)nc(C)c(C(=O)Nc2cc(F)c(Oc3ccnc4cc(OC)c(OC)nc34)cc2F)c1O [Compound 6, N-[4-[(6,7-Dimethoxy-1,5-naphthyridin-4-yl)oxy]-2,5-difluorophenyl]-4-hydroxy-2,6-dimethyl-5-prop-1-en-2-ylpyridine-3-carboxamide]	≤ 100 nM	≤ 100 nM
COc1cnc2c(Oc3ccc(NC(=O)c4cnc(C)c(C5=CCOCC5)c4O)cc3)ccnc2c1 [Compound 7, 5-(3,6-Dihydro-2H-pyran-4-yl)-4-hydroxy-N-[4-[(7-methoxy-1,5-naphthyridin-4-yl)oxy]phenyl]-6-methylpyridine-3-carboxamide]	≤ 100 nM	≤ 100 nM
COc1cc2nccc(Oc3ccc(NC(=O)c4cn(CCF)c(C)c(C5=CCCCC5)c4=O)cc3F)c2nc1OC [Compound 8, 5-(Cyclohexen-1-yl)-N-[4-[(6,7-dimethoxy-1,5-naphthyridin-4-yl)oxy]-3-fluorophenyl]-1-(2-fluoroethyl)-6-methyl-4-oxopyridine-3-carboxamide]	≤ 100 nM	≤ 100 nM
COc1cc2nccc(Oc3ccc(NC(=O)c4c(C)nc(C)c(C(C)C)c4O)cc3)c2nc1OC [Compound 9, N-[4-[(6,7-Dimethoxy-1,5-naphthyridin-4-yl)oxy]phenyl]-4-hydroxy-2,6-dimethyl-5-propan-2-ylpyridine-3-carboxamide]	≤ 100 nM	≤ 100 nM
COc1cc2nccc(Oc3cc(F)c(NC(=O)c4c(C)nc(C)c(C(C)C)c4O)cc3F)c2nc1OC [Compound 10, N-[4-[(6,7-Dimethoxy-1,5-naphthyridin-4-yl)oxy]-2,5-difluorophenyl]-4-hydroxy-2,6-dimethyl-5-propan-2-ylpyridine-3-carboxamide]	≤ 100 nM	≤ 100 nM
